System: Isolated Rat Bladder Strips
Experiment: Inhibition of contractions in isolated rat bladder strips (KCl-enhanced contractile activity; smooth muscle relaxation)
Format: cell-based, Sprague-Dawley rats
Conditions: for IC50: isolated rat bladder strips, 15 mM additional KCl, 30 minute challenge, read-out: IC50 (50% inhibition of pre-drug contractile activity); for inhibition at 30 µM: read-out: Percent inhibition at 30 μM (I)
Text: The smooth muscle relaxing activity of the compounds of this invention was established in accordance with standard pharmaceutically accepted test procedures with representative compounds as follows:
Sprague-Dawley rats (150-200 g) are rendered unconscious by CO2 asphyxiation and then euthanized by cervical dislocation. The bladder is removed into warm (37 deg.C) physiological salt solution (PSS) of the following composition (mM): NaCl, 118.4; KCl, 4.7; CaCl2, 2.5; MgSO4, 4.7; H2 O, 1,2; NaHCO3, 24.9; KH2 PO4, 1,2; glucose, 11.1; EDTA, 0.023; gassed with […]; pH 7.4. The bladder is opened and then dut into strips 1-2 mm in width and 7-10 mm in length. The strips are subsequently suspended in a 10 mL tissue bath under an initial resting tension of 1.5 g. The strips are held in place by two surgical clips one of which is attached to a fixed hook while the other is attached to an isometric force transducer. […] The carbachol is then washed out and the tissue allowed to relax to its resting level of activity. Following a further 30 min period of recovery an additional 15 mM KCl are introduced into the tissue bath. This increase in KCl concentration results in a large increase in the amplitude of spontaneous contractions (and initiation of contractions in previously quiescent strips) superimposed upon a small increase in basal tone. Following stabilization of this enhanced level of contractile activity, incremental increases in the concentration of test compound or vehicle are introduced into the tissue bath. Contractile activity is measured for each compound or vehicle concentration during the last minute of a 30 minute challenge.
The isometric force developed by the bladder strips is measured using a […] to elicit 50% inhibition of pre-drug contractile activity (IC50 concentration) and is calculated from this concentration-response curve.

Structure (SMILES) | IC50 (0.5 h) | inhibition at 30 µM (Rattus norvegicus) | percent contraction at 30 µM (Rattus norvegicus, 0.5 h, read-out: Percent contraction at 30 μM (C))
CCC(C)(C)Nc1c(NCc2cc(F)cc(F)c2)c(=O)c1=O [Example 74, 3-(3,5-Difluoro-benzylamino)-4-(1,1-dimethyl-propylamino)-cyclobut-3-ene-1,2-dione] | 0.75 ± 0.45 µM | – | –
CCC(C)(C)Nc1c(NCc2cccc(Cl)c2C)c(=O)c1=O [Example 97, 3-(3-Chloro-2-methyl-benzylamino)-4-(1,1-dimethyl-propylamino)-cyclobut-3-ene-1,2-dione] | 0.28 ± 0.025 µM | – | –
CC(C)(C)Nc1c(NCc2ccc(F)cc2F)c(=O)c1=O [Example 18, 3-tert-Butylamino-4-(2,4-difluoro-benzylamino)-cyclobut-3-ene-1,2-dione] | 2.1 ± 0.9 µM | – | –
CC(C)(CO)Nc1c(NCc2ccc(C#N)cc2Cl)c(=O)c1=O [Example 93, 3-Chloro-4-{[2-(2-hydroxy-1,1-dimethyl-ethylamino)-3,4-dioxo-cyclobut-1-enylamino]-methyl}-benzonitrile] | 8.1 ± 2 µM | 44% | –
Cc1cccc(C)c1CNc1c(NC(C)(C)C)c(=O)c1=O [Example 52, 3-tert-Butylamino-4-(2,6-dimethyl-benzylamino)-cyclobut-3-ene-1,2-dione] | 5.9 ± 1.8 µM | – | –
CCC(C)(C)Nc1c(NCc2cc(C)cc(C#N)c2)c(=O)c1=O [Example 7, 3-([2-(1,1-Dimethyl-propylamino)-3,4-dioxo-cyclobut-1-enylamino]-methyl)-5-methyl-benzonitrile] | 0.86 ± 0.27 µM | – | –
CCc1cc(CNc2c(N[C@H](C)C(C)(C)C)c(=O)c2=O)ccc1C#N [Example 45, 4-[{3,4-Dioxo-2-(1,2,2-trimethyl-propylamino)-cyclobut-1-enylamino]-methyl}-2-ethyl-benzonitrile] | – | 25 ± 2.04% | –
COc1ccc(CNc2c(NC(C)(C)C)c(=O)c2=O)c(OC)c1 [Example 17, 3-tert-Butylamino-4-(2,4-dimethoxy-benzylamino)-cyclobut-3-ene-1,2-dione] | 9.6 ± 5.7 µM | – | –
CCC(C)(C)Nc1c(NCc2c(Cl)cccc2Cl)c(=O)c1=O [Example 4, 3-(2,6-Dichloro-benzylamino)-4-(1,1-dimethyl-propylamino)-cyclobut-3-ene-1,2-dione] | 0.28 ± 0.03 µM | – | –
COc1cc(OC)c(CNc2c(NC(C)(C)C)c(=O)c2=O)c(OC)c1 [Example 15, 3-tert-Butylamino-4-(2,4,6-trimethoxy-benzylamino)-cyclobut-3-ene-1,2-dione] | 11.1 ± 0.4 µM | – | –
CCCC(=O)N(Cc1ccc(C#N)cc1Cl)c1c(NC(C)(C)C)c(=O)c1=O [Example 101] | 2.36 ± 1.6 µM | – | –
CCC(C)(C)Nc1c(NCc2c(C)cccc2Cl)c(=O)c1=O [Example 32, 3-(2-chloro-6-methyl-benzylamino)-4-(1,1-dimethyl-propylamino)-cyclobut-3-ene-1,2-dione] | 4.35 ± 4.1 µM | – | –
Cc1cccc(C)c1CNc1c(N[C@H](C)C(C)(C)C)c(=O)c1=O [Example 51, 3-(2,6-Dimethyl-benzylamino)-4-(1,2,2-trimethyl-propylamino)-cyclobut-3-ene-1,2-dione] | 5.6 µM | 44% | 22 ± 3.2%
Cc1cc(C)cc(CNc2c(NC(C)(C)C)c(=O)c2=O)c1 [Example 86, 3-tert-Butylamino-4-(3,5-dimethyl-benzylamino)-cyclobut-3-ene-1,2-dione] | 5.1 ± 0.96 µM | – | –
COc1cc(CNc2c(NC(C)(C)C)c(=O)c2=O)cc(OC)c1 [Example 22, 3-tert-butylamino-4-(3,5-dimethoxy-benzylamino)-cyclobut-3-ene-1,2-dione] | 25 ± 10 µM | – | –
CC(Nc1c(NCc2ccc(C#N)cc2Cl)c(=O)c1=O)C(C)(C)F (stereo not drawn) [Example 75, 3-Chloro-4-{[2-(2-fluoro-1,2-dimethyl-propylamino)-3,4-dioxo-cyclobut-1-enylamino]-methyl)-benzonitrile] | 1.59 ± 0.27 µM | – | –
CC(C)(C)Nc1c(NCc2cc(C(F)(F)F)cc(C(F)(F)F)c2)c(=O)c1=O [Example 73, 3-(3.5-Bis-trifluoromethyl-benzylamino)-4-tert-butylamino-cyclobut-3-ene-1,2-dione] | 23.5 ± 8.1 µM | 35.8 ± 4.9% | –
